Patent US20060058380A1, “Novel aminobenzophenone compounds” (priority 2002, published 2006)

Experiments:
[1] = system: comedones; assay: Rhino mouse model, reduction of number of comedones; format: in vivo; conditions: topical on the back daily for 21 days, 45 mM in acetone, percentage change compared to untreated control group
Protocol: The rhino mouse is an in vivo model for the study of hyperplastic and comedolytic potency of compounds used in the treatment of acne. The rhino mouse has follicles on the skin, the orifices of which are distended with horny material, and these structures resembles human comedones.
The model uses mouse of the strain RHJ/LeJ Rhino, hr^rh/hr^rh. The mice are treated topically on the back daily for 21 days with the test compound. Compounds are tested for their ability to reduce the number of comedones.
The number of comedones in the skin of the mouse is determined by histological examination. The percentage change in the number of comedones compared to an untreated control group is calculated. The compounds were applied at 45 mM dissolved in acetone.

[2] = system: TNF-α; assay: Inhibition of TNF-α secretion in LPS stimulated peripheral blood mononuclear cells; format: cell-based; conditions: PBMC; LPS stimulated human peripheral blood mononuclear cells, 18 hours, ELISA; read-out: The median inhibition concentration (IC50, nM) TNF-α
Protocol: (§1) To study the effect of the compound of the present invention in vitro the inhibition of the IL-1β and TNF-α secretion was measured using the following procedure:
(§2) Cytokine production was measured in the media from lipopolysaccharide (LPS) stimulated peripheral blood mononuclear cells. The mononuclear cells were isolated from human peripheral blood by Lymphoprep® (Nycomed, Norway) fractionation and suspended in RPMI 1640 (growth medium) with foetal calf serum (FCS, 2%), at a concentration of 5×10^5 cells/ml. The cells were incubated in 24-well tissue culture plates in 1 ml aliquots. Test compounds were dissolved in dimethylsulfoxide (DMSO, 10 mM) and were diluted with the medium. Compounds were added to the cells for 30 minutes, then LPS ([…] final concentration) was added. The plates were incubated for 18 hours, and the concentration of IL-1β and TNF-α in the medium was determined by enzyme-linked immunosorbent assays. The median inhibitory concentrations (IC50) of the compounds were calculated.

[3] = system: IL-1β; assay: Inhibition of IL-1β secretion in LPS stimulated peripheral blood mononuclear cells; format: cell-based; conditions: PBMC; LPS stimulated human peripheral blood mononuclear cells, 18 hours, ELISA; read-out: The median inhibition concentration (IC50, nM) IL-1β
Protocol: as §1, §2

[4] = Discolouring of compounds on filter paper before and after sun-test illumination; format: physicochemical; parameters: key: 0: No colour; 1: Very faint colour; 2: Light colour; 3: Medium colour; 4: Strong colour; conditions: for Colour score prior to illumination: 10 mM in Ethanol:Labrasol:water 65:25:10, 10 ul spot on filter paper dried 15 minutes; for Colour score after illumination: spots illuminated in sun-test cabinet (Heraeus Suntest CPS), outdoor illumination, 5 minutes
Protocol: The discolouring of compounds of formula I was investigated in a comparison with known aminobenzophenones.
Compounds were dissolved in DMSO at 100 mM. The solutions were diluted 1:10 in the test vehicle (Ethanol:Labrasol:water 65:25:10) just prior to the experiment. 10 ul aliquots were placed in droplets on filter paper and allowed to dry for 15 minutes into spots. Then the colour of the spots was scored using the following scale:
The spots were illuminated in a sun-test cabinet (Heraeus Suntest CPS) set for outdoor illumination for 5 minutes. The scoring was repeated after illumination.

Structure (SMILES) | IC50 [2] [nM] | IC50 [3] [nM] | Colour score prior to illumination [4] | Colour score after illumination [4] | Reduction in number of comedones [1] [%]
CCCC(=O)OC(C)OC(=O)N(c1ccc(C(=O)c2ccccc2C)c(Cl)c1)c1ccc(F)cc1C (stereo not shown) [Compound 112, Butyric acid 1-[[3-chloro-4-(2-methyl-benzoyl)-phenyl]-(4-fluoro-2-methyl-phenyl)-carbamoyloxy]-ethyl ester] | 12 | 25 | 0 | 0 | −56
CCCC(=O)OCOC(=O)N(c1ccc(C(=O)c2ccccc2C)c(Cl)c1)c1ccc(F)cc1C [Compound 113, Butyric acid [[3-chloro-4-(2-methyl-benzoyl)-phenyl]-(4-fluoro-2-methyl-phenyl)-carbamoyloxy]-methyl ester] | 10 | 50 | 0 | 0 | −72
COCC(=O)OC(C)OC(=O)N(c1ccc(C(=O)c2ccccc2C)c(Cl)c1)c1ccc(F)cc1C (stereo not shown) [Compound 119, Methoxy-acetic acid 1-[[3-chloro-4-(2-methyl-benzoyl)-phenyl]-(4-fluoro-2-methyl-phenyl)-carbamoyloxy]-ethyl ester] | – | – | 0 | 0 | –
Cc1ccccc1C(=O)c1ccc(N(C(=O)OC(C)OC(=O)C(C)(C)O)c2ccc(F)cc2C)cc1Cl (stereo not shown) [Compound 128, 2-Hydroxy-2-methyl-propionic acid 1-[[3-chloro-4-(2-methyl-benzoyl)-phenyl]-(4-fluoro-2-methyl-phenyl)-carbamoyloxy]-ethyl ester] | 7.9 | 10 | – | – | –
Cc1ccccc1C(=O)c1ccc(N(C(=O)OC(C)OC(=O)CC(C)C)c2ccc(F)cc2C)cc1Cl (stereo not shown) [Compound 133, 3-Methyl-butyric acid 1-[[3-chloro-4-(2-methyl-benzoyl)-phenyl]-(4-fluoro-2-methyl-phenyl)-carbamoyloxy]-ethyl ester] | 20 | 79 | 0 | 0 | −61

Further lines, with some results ahead:

IC50 [2] [nM] | IC50 [3] [nM] | Colour score prior to illumination [4] | Colour score after illumination [4] | Structure (SMILES) | Reduction in number of comedones [1] [%]
5 | 7.9 | – | – | C/C=C/C(=O)OC(C)OC(=O)N(c1ccc(C(=O)c2ccccc2C)c(Cl)c1)c1ccc(F)cc1C (stereo not shown) [Compound 137, (E)-But-2-enoic acid 1-[[3-chloro-4-(2-methyl-benzoyl)-phenyl]-(4-fluoro-2-methyl-phenyl)-carbamoyloxy]-ethyl ester] | –
– | – | 0 | 0 | Cc1ccccc1C(=O)c1ccc(N(C(=O)OC(C)OC(=O)c2cccnc2)c2ccc(F)cc2C)cc1Cl (stereo not shown) [Compound 147, Nicotinic acid 1-[[3-chloro-4-(2-methyl-benzoyl)-phenyl]-(4-fluoro-2-methyl-phenyl)-carbamoyloxy]-ethyl ester] | –
7.9 | 32 | 0 | 3 | Cc1cc(F)ccc1Nc1ccc(C(=O)c2ccccc2C)c(Cl)c1 [Reference a, 2-chloro-4-(4-fluoro-2-methyl-phenylamino)-2′-methylbenzophenone, reference compound] | –
– | – | 1 | 3 | Cc1ccccc1C(=O)c1ccc(Nc2ccc(Br)cc2N)cc1Cl [Reference b, 4-(2-amino-4-bromo-phenylamino)-2-chloro-2′-methylbenzophenone, reference compound] | –
– | – | 1 | 3 | CNc1ccccc1C(=O)c1ccc(Nc2ccccc2N)cc1Cl [Reference c, 4-(2-aminophenylamino)-2-chloro-2′-methylaminobenzophenon, reference compound] | –
